In assay [1] the target is T1, Sirt1 (Mus musculus, UniProt Q923E4).
T1 construct: from tissue; host or cells: whole living mice (WT and Chi3l1-/-); read-outs in lung/BAL and epididymal fat pads
T1 sequence (Q923E4 1-737): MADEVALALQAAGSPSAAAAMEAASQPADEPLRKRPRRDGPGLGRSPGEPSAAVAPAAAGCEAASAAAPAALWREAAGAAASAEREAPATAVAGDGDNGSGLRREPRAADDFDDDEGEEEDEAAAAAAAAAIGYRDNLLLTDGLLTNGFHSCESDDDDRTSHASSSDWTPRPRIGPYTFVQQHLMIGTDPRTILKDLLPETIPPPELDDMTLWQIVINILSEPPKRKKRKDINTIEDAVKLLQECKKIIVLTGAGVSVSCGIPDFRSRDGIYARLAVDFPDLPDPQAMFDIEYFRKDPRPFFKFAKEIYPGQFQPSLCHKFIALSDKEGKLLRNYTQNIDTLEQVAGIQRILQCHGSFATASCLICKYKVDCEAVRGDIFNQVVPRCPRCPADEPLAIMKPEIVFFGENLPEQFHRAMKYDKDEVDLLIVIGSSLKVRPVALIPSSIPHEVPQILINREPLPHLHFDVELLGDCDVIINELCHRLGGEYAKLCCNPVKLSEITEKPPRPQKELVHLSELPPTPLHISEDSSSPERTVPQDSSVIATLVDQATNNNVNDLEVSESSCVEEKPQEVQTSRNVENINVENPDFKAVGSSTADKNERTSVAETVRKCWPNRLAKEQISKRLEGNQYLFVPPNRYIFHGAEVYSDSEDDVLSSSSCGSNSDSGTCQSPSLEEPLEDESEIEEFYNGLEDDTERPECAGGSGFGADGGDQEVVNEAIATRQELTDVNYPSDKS
The assay is described as follows: Visceral (epididymal) fat accumulation in mice treated with Sirt1 inhibitor. Particulars: 0.4 mg/kg body weight per day i.p. twice per week for 5 weeks, vs DMSO vehicle. Format: in vivo. The protocol:
WT and Chi3l1^−/− mice were treated with Sirtinol or its vehicle (DMSO) and fat accumulation was assessed. Each animal received drug (0.4 mg/kg body weight per day) or vehicle twice per week for 5 weeks. FIG. 7A depicts a representative photograph illustrating abdominal fat accumulation, FIG. 7B depicts the weight of epididymal fat pads from WT and chi3l1^−/− mice. The noted values represent the mean±SEM of a minimum of 5 animals. (*P≦0.05, **p≦0.01). Sirtinol, a Sirt1 inhibitor (Enzo Life Sciences) or vehicle control (0.05% dimethyl sulofoxide) were diluted with Phosphate Buffered Saline (PBS) and administered via an intraperitoneal (i.p.) route.

In assay [2] the target is T1, Sirt1. Kind of assay: OVA aeroallergen-induced adaptive Th2 lung inflammation in mice treated with Sirt1 inhibitor. The class given is in vivo. The settings on record: OVA sensitized and challenged, 0.4 mg/kg body weight per day i.p. one hour before every antigen challenge, vs DMSO vehicle. The protocol: WT and Chit3l1^−/− mice were sensitized and challenged with OVA (ova+) or PBS (ova−) and were treated with Sirtinol or its vehicle (DMSO). Each animal received drug (0.4 mg/kg body weight per day) or vehicle one hour before every antigen challenge. FIGS. 6A-6B depict BAL total cell and eosinophil recovery, FIG. 6C depicts H&E photomicrographs of lungs from WT and Chi3l1^−/− mice treated with sirtinol or vehicle after OVA challenge, FIGS. 6D-6H depict the levels of mRNA encoding IL-4, IL-13, IL-17, IL-6 and TNF-α in the lungs of WT and Chi3l1^−/− mice treated with Sirtinol or DMSO. The noted values represent the mean±SEM of a minimum of 5 animals. (*p≦0.05, **p≦0.01). Mice were sensitized and challenged with ovalbumin (OVA) as previously described (20). One day after last challenge, the mice were sacrificed, bronchoalveolar lavage (BAL) was undertaken, and tissue responses were evaluated. Sirtinol, a Sirt1 inhibitor (Enzo Life Sciences) or vehicle control (0.05% dimethyl sulofoxide) were diluted with Phosphate Buffered Saline (PBS) and administered via an intraperitoneal (i.p.) route.

Structures are written as SMILES.

On to `CC(NC(=O)c1ccccc1/N=C/c1c(O)ccc2ccccc12)c1ccccc1` (stereo not shown) [Sirtinol], for which the “levels of visceral fat” value is recorded as “restored” at Sirt1 [1] (Chi3l1 null mice) and “did not significantly alter” on Sirt1 [1] (WT mice). On Sirt1 [2] (Chi3l1 null mice), the “aeroallergen induced Th2 inflammation and Th2, IL-17 and IL-6 cytokine expression, and airway mucus” value is recorded as “restored”. In addition, the “aeroallergen-induced Th2 inflammation and Th2, IL-17 and IL-6 cytokine production and mucus production in the lung” value on Sirt1 [2] (WT mice) is “diminished”.

Source of the values: US20160166520A1, “METHODS AND COMPOSITIONS RELATING TO THE TREATMENT OF VISCERAL FAT AND ASTHMA” (YALE UNIVERSITY, priority 2014, published 2016).
